Values joined by “and” are separate entries in the source; they are usually repeats but may differ in a detail not shown here. Identical values can stand only once. “Also recorded” adds a separate entry of the source.
Test system: White Blood Cell (WBC)
Test: TPA induced white blood cell changes in patients with solid tumors undergoing chemotherapy
Assay type: in vivo, humans
Protocol: TPA solution in a sterile syringe was injected into 200 ml of saline and mixed well for i.v. infusion.
Patients undergoing chemotherapy for the treatment of solid tumors.
Subject No. (11), person. Diagnosis: malignant lymphoma. The patient had received adramycin, vincristine, and hormonal treatment. The blood cell counts were decreased to: Hb: 78 g/L, WBC: 0.7×10^9 /L, platelet: 245×10^9 /L. 0.25 mg TPA was administered to the patient 4 times. The blood cell counts improved to: Hb: 76 g/L, WBC: 6.8×10^9 /L, platelet: 331×10^9 /L. Chemotherapy was then continued for 5 more days, and followed by one dose of 0.5 mg TPA. The WBC count was maintained at 3.0×10^9 /L. The patient is still receiving treatment.
Subject No. (12), person. Diagnosis: brain tumor. Blood profile after chemotherapy was: Hb: 119 g/L, WBC: 3.0×10^9 /L, platelet: 399×10^9 /L. 0.25 mg TPA was given to the patient once. On the day after the TPA treatment, the blood profile was Hb: 123 g/L, WBC: 4.5×10^9 /L, platelet: 436×10^9 /L. The patient received further chemotherapy.
Subject No. (13), person. Diagnosis: lung cancer. After chemotherapy, their blood cell counts were decreased to: Hb: 76 g/L, WBC: 0.9×10^9 /L, platelet: 100×10^9 /L. 0.25 mg TPA was given to the patient twice. On the day after the TPA treatment, Hb: 74 g/L, WBC: 2.5×10^9 /L, platelet: 110×10^9 /L. The patient is still receiving treatment.
Subject No. (14), person. Diagnosis: breast cancer. The WBC after chemotherapy was 3.8×10^9 /L. 0.25 mg of TPA was given to the patient once. The WBC on the day after the TPA treatment was 8.0×10^9 /L.
Subject No. (15), person. Diagnosis: Esophageal Cancer. Surgery was performed, followed by chemotherapy using cisplatin, 5-fluorouracil. Blood profile (before TPA): WBC: 2.4×10^9 /L; neutrophil: 83%, lymphocyte: 17%; platelet: 150×10^9 /L; RBC: 3.43×10^12 /L; Hb: 107 g/L. TPA dosage: 0.25 mg. […] The cardiac, hepatic, renal and pulmonary functions were normal.
Subject No. (16), person. Diagnosis: Esophageal Cancer. Surgery was performed, followed by chemotherapy using VP16, MTX, MMC and cisplatin. TPA dose: 0.25 mg. Blood profile (before TPA): WBC: 2.4×10^9 /L; neutrophil: 67%; lymphocyte: 23%; platelet: 101×10^9 /L; RBC: 3.45×10^12 /L; Hb: 114 g/L. Blood profile (one day after TPA): WBC: 5.2×10^9 /L; neutrophil: 87%; lymphocyte: 13%; platelet 60×10^9 /L; RBC: 3.76×10^12 /L; Hb: 122 g/L. Blood profile (2 days after TPA administration).
Subject No. (17), person. Diagnosis: breast cancer. Surgery was performed, followed by chemotherapy using CTX, MTX, and 5-FU. TPA dose: 0.25 mg×2 (Second dose was 4 days after 1st dose). […] The cardiac, hepatic, renal and pulmonary functions were normal.
Subject No. (18), person. Diagnosis: Colon cancer. Surgery was performed, followed by chemotherapy using Cisplatin, VP16, and 5-FU. TPA dose: 0.25 mg×2 (2nd TPA dose was administered 24 hrs after 1st TPA dose). […] Cardiac hepatic, renal and pulmonary functions were normal.
Subject No. (19), person. Diagnosis: lung cancer metastasized to adrenal gland. Surgery was performed, followed by chemotherapy using MMC, VCR, and CTX. TPA dosage: 0.25 mg×2 (2nd TPA dose was administered 24 hrs after 1st TPA dose). […] Cardiac, hepatic renal and pulmonary functions were normal.
Subject No. (20), person. Diagnosis: esophageal cancer metastasized to liver, lung and brain. The patient received chemotherapy using Taxol, cisplatin, 5-FU and Semustial. Total TPA dosage: 2mg. Blood profile (before TPA): WBC: 0.7×10^9 /L; neutrophil: 29%; lymphocyte: 71%; platelet: N/A; RBC: 2.82×10^12 /L; Hb: 87 g/L. TPA treatment schedule. On the first and third day, 0.25 mg was given and on the 5th, 7th and 9th day 0.5 mg of TPA was given. […] Cardiac, hepatic, renal and pulmonary functions were normal.
Subject No. (21), person. Diagnosis: lymphoma metastasized to bone marrow. […]

[1] = 2 days after second TPA dose (0.25 mg×2)
[2] = 2 days after single TPA 0.25 mg
[3] = 4 days after single TPA 0.25 mg
[4] = 7 days after single TPA 0.25 mg
[5] = one day after second TPA dose (0.25 mg×2)
[6] = one day after single TPA 0.25 mg
[7] = solid tumor patients after TPA 0.25 mg doses
[8] = subject 11, malignant lymphoma, after 0.25 mg TPA 4 times
[9] = subject 17, 3 days after first TPA dose 0.25 mg
[10] = subject 17, 4 days after second TPA dose 0.25 mg
[11] = subject 20, 11th day, TPA total 2 mg over 9 days
[12] = subject 20, day 2, TPA total 2 mg over 9 days
[13] = subject 20, day 4, TPA total 2 mg over 9 days
[14] = subject 20, day 6, TPA total 2 mg over 9 days
[15] = subject 20, day 8, TPA total 2 mg over 9 days
[16] = subject 20, day 13, TPA total 2 mg over 9 days
[17] = subject 21, day 2, TPA total 2.5 mg, days 1-8
[18] = subject 21, day 4, TPA total 2.5 mg, days 1-8
[19] = subject 21, day 7, TPA total 2.5 mg, days 1-8
[20] = subject 21, day 9, TPA total 2.5 mg, days 1-8

CCCCCCCCCCCCCC(=O)O[C@@H]1[C@@H](C)[C@@]2(O)[C@@H](C=C(CO)C[C@]3(O)C(=O)C(C)=C[C@@H]23)[C@@H]2C(C)(C)[C@]12OC(C)=O [TPA, Phorbol 12-Myristate-13-Acetate]
Hb [1]: 101 g/L
WBC [1]: 3.8e+09 L⁻¹ and 5e+09 L⁻¹
lymphocyte [1]: 16% and 20%
neutrophil [1]: 84% and 80%
platelet [1]: 8.4e+10 L⁻¹
Hb [2]: 109 g/L and 116 g/L
RBC [2]: 2.99e+12 L⁻¹
WBC [2]: 4.5e+09 L⁻¹ and 5.6e+09 L⁻¹
lymphocyte [2]: 20% and 19%
neutrophil [2]: 80% and 81%
platelet [2]: 6.4e+10 L⁻¹
Hb [3]: 112 g/L and 129 g/L
RBC [3]: 3.36e+12 L⁻¹
WBC [3]: 4.4e+09 L⁻¹ and 3.9e+09 L⁻¹
platelet [3]: 1.05e+11 L⁻¹
Hb [4]: 118 g/L and 138 g/L
neutrophil [4]: 82% and 48%
recovery of infection fighting cells (after and during chemotherapy): help speed the rapid recovery of the infection fighting cells
Hb [5]: 74 g/L and 112 g/L and 93 g/L
RBC [5]: 4.1 ×10^12
neutrophil [5]: 60% and 82%
platelet [5]: 1.1e+11 L⁻¹ and 1.98e+11 L⁻¹
Hb [6]: 123 g/L and 109 g/L and 122 g/L and 116 g/L and 139 g/L and 126 g/L and 120 g/L
RBC [6]: 3.33e+12 L⁻¹ and 3.76e+12 L⁻¹
neutrophil [6]: 94% and 87% and 79% and 53% and 60% and 90% and 83%
time of elevation of white blood cell count (patients receiving chemotherapy, often): within one day
duration of fever [7]: 4 h
fever, temperature after TPA [7]: 38 °C and 39.2 °C and 37.8 °C and 39 °C
cardiac, hepatic, renal and pulmonary functions (solid tumor patients after TPA, one subject per block): normal; also recorded: same as before TPA treatment; also recorded: functioning normally
Symptoms after TPA (solid tumor patients undergoing chemotherapy, one subject per block): Chill, fever, local irritation and slight headache; also recorded: chills, fever, local irritation; also recorded: Chills at 5th day which lasted about one hour; also recorded: No chills and fever, only local irritation; also recorded: No chills. Low fever; also recorded: Stomach ache and diarrhea (which disappeared soon after)
WBC count maintained (subject 11, after 5 more days chemotherapy and one dose 0.5 mg TPA): 3e+09 L⁻¹
Hb [8]: 76 g/L
WBC [8]: 6.8e+09 L⁻¹
platelet [8]: 3.31e+11 L⁻¹
Hb [9]: 107 g/L
RBC [9]: 3.36e+12 L⁻¹
WBC [9]: 2.9e+09 L⁻¹
lymphocyte [9]: 17%
neutrophil [9]: 83%
platelet [9]: 1.22e+11 L⁻¹
Hb [10]: 112 g/L
RBC [10]: 3.49e+12 L⁻¹
WBC [10]: 4.4e+09 L⁻¹
lymphocyte [10]: 14%
neutrophil [10]: 86%
platelet [10]: 1.93e+11 L⁻¹
duration of chills (subject 17, TPA 0.25 mg×2): 2 h
Hb [11]: 61 g/L
RBC [11]: 2.91e+12 L⁻¹
WBC [11]: 2.7e+09 L⁻¹
lymphocyte [11]: 15%
neutrophil [11]: 85%
platelet [11]: 3.76e+10 L⁻¹
Hb [12]: 72 g/L
RBC [12]: 2.17e+12 L⁻¹
WBC [12]: 9e+08 L⁻¹
lymphocyte [12]: 34%
neutrophil [12]: 66%
platelet [12]: 8.2e+10 L⁻¹
Hb [13]: 58 g/L
RBC [13]: 2.09e+12 L⁻¹
WBC [13]: 1.1e+09 L⁻¹
lymphocyte [13]: 9%
neutrophil [13]: 91%
platelet [13]: 3.9e+10 L⁻¹
Hb [14]: 70 g/L
RBC [14]: 1.9 ×10^12
WBC [14]: 1.9e+09 L⁻¹
lymphocyte [14]: 5%
neutrophil [14]: 95%
platelet [14]: 4.3e+10 L⁻¹
Hb [15]: 61 g/L
RBC [15]: 1.71e+12 L⁻¹
WBC [15]: 2.3e+09 L⁻¹
lymphocyte [15]: 9%
neutrophil [15]: 91%
platelet [15]: 9e+10 L⁻¹
Hb [16]: 57 g/L
RBC [16]: 1.73e+12 L⁻¹
WBC [16]: 1.9e+09 L⁻¹
lymphocyte [16]: 10%
neutrophil [16]: 90%
platelet [16]: 3.2e+10 L⁻¹
Hb [17]: 117 g/L
RBC [17]: 4.15e+12 L⁻¹
WBC [17]: 6e+08 L⁻¹
platelet [17]: 6.9e+10 L⁻¹
Hb [18]: 109 g/L
RBC [18]: 3.95e+12 L⁻¹
WBC [18]: 6e+08 L⁻¹
lymphocyte [18]: 72%
neutrophil [18]: 28%
platelet [18]: 6.8e+10 L⁻¹
Hb [19]: 110 g/L
RBC [19]: 4.22e+12 L⁻¹
WBC [19]: 8e+08 L⁻¹
lymphocyte [19]: 12%
neutrophil [19]: 88%
platelet [19]: 6e+10 L⁻¹
Hb [20]: 112 g/L
RBC [20]: 4.02e+12 L⁻¹
WBC [20]: 1.5e+09 L⁻¹
lymphocyte [20]: 2%
neutrophil [20]: 80%
platelet [20]: 6.9e+10 L⁻¹
resolution of injection site symptoms (subject 25, TPA 0.25 mg): disappeared the second day after they appeared
injection site reaction (subject 25, TPA 0.25 mg, probably caused by infusion needle): red, swollen in appearance and painful
duration of raised temperature (subject 26, TPA 0.25 mg): 3 h
Hb (three days after TPA 0.25 mg): 123 g/L
WBC (three days after TPA 0.25 mg): 2.9e+09 L⁻¹
lymphocyte (three days after TPA 0.25 mg): 27%
neutrophil (three days after TPA 0.25 mg): 73%
